Test results published in paper PMC8242589, “Cardiac Safety of Kinase Inhibitors – Improving Understanding and Prediction of Liabilities in Drug Discovery Using Human Stem Cell-Derived Models” (Frontiers in Cardiovascular Medicine, 2021).
Entries after “also recorded” stand apart in the source; their conditions may differ.

How the values were obtained:
[1] = system: hSC-CMs (Cor.4U Cardiomyocytes); test: Apoptosis assay (CellEvent Caspase-3/7 Green, IncuCyte ZOOM kinetics over 24 h); assay type: cell-based, human; parameters: key to Caspase / Caspase MEAN: % of time-matched vehicle control (green object area); conditions: for activity at 0.03 µM / activity at 0.1 µM / activity at 0.3 µM / activity at 1 µM: Homo sapiens, Cardiomyocyte; for activity at 0.03 µM / activity at 0.1 µM / activity at 0.3 µM / activity at 1 µM / Caspase: normalized to time-matched vehicle control; for Apoptosis (caspase-3/7 activation), result in words: monitored over 24 h
Outline: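 Cor.4U cardiomyocytes were cultured 4 days at 5% CO2 and 37 °C, given a 2 h baseline, then treated with compound for 24 h. Caspase-3/7 green nuclear signal was imaged every 2 h, and total green object area per well (μm^2/well) was normalized to the time-matched vehicle control. At least three replicates were run per concentration.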

[2] = system: hSC-CMs (Cor.4U Cardiomyocytes); test: CardioExcyte 96 impedance and EFP recording (beating rate, base impedance); assay type: cell-based, human; conditions: for activity at 0.03 µM / activity at 0.1 µM / activity at 0.3 µM / activity at 1 µM: Homo sapiens, Cardiomyocyte; for activity at 0.03 µM / activity at 0.1 µM / activity at 0.3 µM / activity at 1 µM / BR / Base Imp: vs baseline before drug (taken as 100%)
Outline: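 hSC-CM monolayers (Cor.4U), cultured 4 days at 37 °C, 5% CO2, recorded spontaneously beating; impedance sampled at 1 kHz, EFP at 10 kHz. Beating rate taken as reciprocal of inter-spike interval in EFP. Each test concentration expressed as fractional change versus pre-drug baseline (100%).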

[3] = system: hSC-CMs (Cor.4U Cardiomyocytes); test: ATP assay (CellTiter-Glo Luminescent Cell Viability Assay); assay type: cell-based, human; conditions: for viability at 0.03 µM / viability at 0.1 µM / viability at 0.3 µM / viability at 1 µM: Homo sapiens, Cardiomyocyte; for viability at 0.03 µM / viability at 0.1 µM / viability at 0.3 µM / viability at 1 µM / ATP: normalized to time-matched DMSO control; for Effect on ATP level, in words: hSC-CMs, up to the highest test concentrations
Outline: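 Human stem-cell-derived Cor.4U cardiomyocytes (25,000–30,000/well), cultured 4 days at 37 °C, switched to serum-free BMCC medium 12 h before dosing. Cellular ATP quantified by CellTiter-Glo luminescence and normalized to time-matched DMSO controls; at least three replicates per concentration.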

GSK-3α = conditions: ref [46] (CHIR99021), [47] (SB 216763); read-out: Target IC50 GSK-3α; cited from earlier work
ROCK2 = conditions: ref [36] (RKI-1447), [37], [38] (Fasudil), [39]–[43] (Y-27632), [44], [45] (GSK-429286); read-out: Target IC50 ROCK2; cited from earlier work
ROCK1 = conditions: ref [36] (RKI-1447), [37], [38] (Fasudil), [39]–[43] (Y-27632), [44], [45] (GSK-429286); read-out: Target IC50 ROCK1; cited from earlier work
[4] = 0.1 µM, 24h, read-out: Base Imp

## Cc1c[nH]c(-c2cnc(NCCNc3ccc(C#N)cn3)nc2-c2ccc(Cl)cc2Cl)n1 [CHIR99021]
[1]; 2h
  activity at 0.03 µM: 160%
  activity at 0.3 µM: 132%
[1]; 24h
  activity at 0.03 µM: 109%
  activity at 0.3 µM: 80%
[1]; 0.1 µM, 2h
  activity at 0.1 µM: 143%
[1]; 0.1 µM, 24h
  activity at 0.1 µM: 79%
[1]; 1 µM, 2h
  activity at 1 µM: 122%
[1]; 1 µM, 24h
  activity at 1 µM: 85%
[1]; hSC-CMs
  Apoptosis (caspase-3/7 activation), result in words: did not have any functionally-relevant effect
[2]; 2h, read-out: BR
  activity at 0.03 µM: 99%
  activity at 0.3 µM: 90%
[2]; 2h, read-out: Base Imp
  activity at 0.03 µM: 96%
  activity at 0.3 µM: 94%
[2]; 24h, read-out: BR
  activity at 0.03 µM: 95%
  activity at 0.3 µM: 92%
[2]; 24h, read-out: Base Imp
  activity at 0.03 µM: 97%
  activity at 0.3 µM: 91%
[2]; 0.1 µM, 2h, read-out: BR
  activity at 0.1 µM: 93%
[2]; 0.1 µM, 2h, read-out: Base Imp
  activity at 0.1 µM: 93%
[2]; 0.1 µM, 24h, read-out: BR
  activity at 0.1 µM: 92%
[2]; [4]
  activity at 0.1 µM: 97%
[2]; 1 µM, 2h, read-out: BR
  activity at 1 µM: 84%
[2]; 1 µM, 2h, read-out: Base Imp
  activity at 1 µM: 90%
[2]; 1 µM, 24h, read-out: BR
  activity at 1 µM: 93%
[2]; 1 µM, 24h, read-out: Base Imp
  activity at 1 µM: 88%
[2]; hSC-CMs, 2 and 24 h
  Effect on cardiomyocyte function in 3D surface plots (beating rate, base impedance, ATP), in words: minimal functional effect
  Effect on hSC-CMs function (base impedance and beating rate), in words: did not produce functionally relevant changes
[3]; 2h
  viability at 0.03 µM: 87%
  viability at 0.3 µM: 93%
[3]; 24h
  viability at 0.03 µM: 97%
  viability at 0.3 µM: 92%
[3]; 0.1 µM, 2h
  viability at 0.1 µM: 87%
[3]; 0.1 µM, 24h
  viability at 0.1 µM: 95%
[3]; 1 µM, 2h
  viability at 1 µM: 99%
[3]; 1 µM, 24h
  viability at 1 µM: 97%
[3]
  Effect on ATP level, in words: did not impact the ATP level
GSK-3α
  IC50: 10 nM

## Cn1cc(C2=C(c3ccc(Cl)cc3Cl)C(=O)NC2=O)c2ccccc21 [SB 216763]
[1]; 2h
  activity at 0.03 µM: 143%
  activity at 0.3 µM: 256%
[1]; 24h
  activity at 0.03 µM: 92%
  activity at 0.3 µM: 265%
[1]; 0.1 µM, 2h
  activity at 0.1 µM: 174%
[1]; 0.1 µM, 24h
  activity at 0.1 µM: 132%
[1]; 1 µM, 2h
  activity at 1 µM: 326%
[1]; 1 µM, 24h
  activity at 1 µM: 352%
[1]; hSC-CMs
  Time to plateau of caspase-3/7 activation: within the first hour
  Apoptosis (caspase-3/7 activation), result in words: quickly induced a concentration-dependent caspase−3/7 activation
[2]; 2h, read-out: BR
  activity at 0.03 µM: 98%
  activity at 0.3 µM: 97%
[2]; 2h, read-out: Base Imp
  activity at 0.03 µM: 109%
  activity at 0.3 µM: 106%
[2]; 24h, read-out: BR
  activity at 0.03 µM: 91%
  activity at 0.3 µM: 94%
[2]; 24h, read-out: Base Imp
  activity at 0.03 µM: 108%
  activity at 0.3 µM: 102%
[2]; 0.1 µM, 2h, read-out: BR
  activity at 0.1 µM: 88%
[2]; 0.1 µM, 2h, read-out: Base Imp
  activity at 0.1 µM: 107%
[2]; 0.1 µM, 24h, read-out: BR
  activity at 0.1 µM: 94%
[2]; [4]
  activity at 0.1 µM: 107%
[2]; 1 µM, 2h, read-out: BR
  activity at 1 µM: 85%
[2]; 1 µM, 2h, read-out: Base Imp
  activity at 1 µM: 102%
[2]; 1 µM, 24h, read-out: BR
  activity at 1 µM: 93%
[2]; 1 µM, 24h, read-out: Base Imp
  activity at 1 µM: 105%
[2]; hSC-CMs, 2 and 24 h
  Effect on cardiomyocyte function in 3D surface plots (beating rate, base impedance, ATP), in words: minimal functional effect
  Effect on hSC-CMs function (base impedance and beating rate), in words: did not produce functionally relevant changes
[3]; 2h
  viability at 0.03 µM: 88%
  viability at 0.3 µM: 91%
[3]; 24h
  viability at 0.03 µM: 98%
  viability at 0.3 µM: 95%
[3]; 0.1 µM, 2h
  viability at 0.1 µM: 88%
[3]; 0.1 µM, 24h
  viability at 0.1 µM: 99%
[3]; 1 µM, 2h
  viability at 1 µM: 97%
[3]; 1 µM, 24h
  viability at 1 µM: 96%
[3]
  Effect on ATP level, in words: did not impact the ATP level
GSK-3α
  IC50: 34 nM

## CC1=C(C(=O)Nc2cc3cn[nH]c3cc2F)C(c2ccc(C(F)(F)F)cc2)CC(=O)N1 (stereo not drawn) [GSK-429286]
[1]; 0.01 µM, 2h
  Caspase: 95
[1]; 0.01 µM, 24h
  Caspase: 97
[1]; 0.1 µM, 2h
  Caspase: 109
[1]; 0.1 µM, 24h
  Caspase: 103
[1]; 1 µM, 2h
  Caspase: 104
[1]; 1 µM, 24h
  Caspase: 105
[1]; 10 µM, 2h
  Caspase: 116
[1]; 10 µM, 24h
  Caspase: 127
[1]; top / highest test concentration, over 24 h
  Apoptosis (caspase-3/7 activity) at the highest test concentration, in words: marginal effects
[2]; 0.01 µM, 2h
  BR: 102
  Base Imp: 99
[2]; 0.01 µM, 24h
  BR: 100
  Base Imp: 92
[2]; 0.1 µM, 2h
  BR: 102
  Base Imp: 91
[2]; 0.1 µM, 24h
  BR: 106
  Base Imp: 85
[2]; 1 µM, 2h
  BR: 105
  Base Imp: 83
[2]; 1 µM, 24h
  BR: 109
  Base Imp: 72
[2]; 10 µM, 2h
  BR: 98
  Base Imp: 69
[2]; 10 µM, 24h
  BR: 88
  Base Imp: 58
[2]; hSC-CMs, 2 and 24 h
  Effect on base impedance, in words: concentration-and time-dependent decrease in base impedance; also recorded: concentration-dependent effects
[3]; 0.01 µM, 2h
  ATP: 101
[3]; 0.01 µM, 24h
  ATP: 101
[3]; 0.1 µM, 2h
  ATP: 101
[3]; 0.1 µM, 24h
  ATP: 96
[3]; 1 µM, 2h
  ATP: 102
[3]; 1 µM, 24h
  ATP: 96
[3]; 10 µM, 2h
  ATP: 104
[3]; 10 µM, 24h
  ATP: 102
ROCK2
  IC50: 63 nM
ROCK1
  IC50: 14 nM
